Experimental data reported in PubChem BioAssay AID602437 (Southern Research Specialized Biocontainment Screening …, 2012).
Several values for one entry are separate records, joined by “and”; a condition that tells them apart may be missing. Identical values can stand only once. Activity calls are given as the source filed them. The rule behind the calls is not given here.

Key:
[1] = system: M. tuberculosis H37Rv growth inhibition, no glycerol; experiment: H37Rv growth blockers, purified and synthesized samples, set 8, confirmation (AID 602437); conditions: for IC50: measured here: IC50 replicates
[2] = as above; conditions: M. tuberculosis H37Rv growth inhibition, no glycerol; at 100 µM (top of the series)

Row | Structure (SMILES) | IC50 [1] | IC90 [1] | inhibition [2]
1 | COc1ccc(N2CCN(C(=O)c3ccc(CNc4c(N5CCOCC5)c(=O)c4=O)cc3)CC2)cc1 | 8.95 µM and 8.65 µM |  | 
2 | COc1ccc(N2CCN(C(=O)c3ccc(CNc4c(N5CCCC(C)C5)c(=O)c4=O)cc3)CC2)cc1 (stereo not given) | 25.4 µM | 41.4 µM | 
3 | CC1CCCN(c2c(NCc3ccc(C(=O)N4CC=C(c5ccccc5)CC4)cc3)c(=O)c2=O)C1 (stereo not given) | 7.72 µM | 9.7 µM | 
4 | CC(C)CCNC(=O)CSc1nc2c(c(=O)[nH]1)CCCC2 | 4.43 µM | 6.58 µM | 
5 | CCC(C)NC(=O)CSc1nc2ccccc2c(=O)[nH]1 (stereo not given) | 4.95 µM | 7.63 µM | 
6 | O=C(c1ccc(CNc2c(N3CCCC3)c(=O)c2=O)cc1)N1CCc2ccccc2C1 | 7.79 µM |  | 
7 | O=C(CSc1nc2c(c(=O)[nH]1)CCCC2)NC1CCCCC1 | 2.3 µM | 3.45 µM | 
8 | O=C(CSc1nc2ccccc2c(=O)[nH]1)NC1CCCCC1 | 0.204 µM | < 0.27 µM | 
9 | O=C(c1ccc(CNc2c(N3CCOCC3)c(=O)c2=O)cc1)N1CCN(c2ccccc2)CC1 | 3.8 µM |  | 
10 | CC(C)OC(=O)CSc1ncnc2c1cnn2-c1ccccc1 | 12 µM |  | 
11 | COCCNC(=O)CSc1nc2ccccc2c(=O)[nH]1 |  |  | -10.3% (inactive)
12 | COc1ccc(NC(=O)NCc2ccc(C(=O)N3CCC(c4ccccc4)CC3)cc2)cc1 |  |  | 14% (inactive)
13 | CC1CCN(C(=O)c2ccc(CNc3c(N4CCCC4)c(=O)c3=O)cc2)CC1 | 10.1 µM |  | 
14 | COc1ccc(N2CCN(C(=O)c3ccc(CNC(=O)NCc4ccc(Cl)cc4)cc3)CC2)cc1 |  |  | 2.39% (inactive)
15 | CC1CCCN(C(=O)C2CCC(CNc3c(N4CCCCC4)c(=O)c3=O)CC2)C1 (stereo not given) | 34.9 µM |  | 
16 | O=C(NCc1ccc(C(=O)N2CCC(c3ccccc3)CC2)cc1)NC1CCCCC1 | 67.7 µM | 86.4 µM | 
17 | CC(=O)c1ccc(NC(=O)c2ccc(CNc3c(N4CCOCC4)c(=O)c3=O)cc2)cc1 | 63.7 µM |  | 
18 | O=C(CSc1nc2ccccc2c(=O)[nH]1)NC1CCOCC1 | 20.5 µM | 33.8 µM | 
19 | CC(C)CCNC(=O)CSc1nc2ccccc2c(=O)[nH]1 | 0.651 µM | 1.01 µM | 
20 | O=C(c1ccc(CNc2c(N3CCCC3)c(=O)c2=O)cc1)N1CC=C(c2ccccc2)CC1 | 4.52 µM and 4.4 µM |  | 
21 | O=C(NCCc1ccc(Cl)cc1)C1CCC(CNc2c(N3CCCCC3)c(=O)c2=O)CC1 (stereo not given) | 17.6 µM |  | 
22 | O=C(c1ccc(CNc2c(N3CCOCC3)c(=O)c2=O)cc1)N1CCC(c2ccccc2)CC1 | 3.56 µM |  | 

Row | Structure (SMILES) | IC50 [1] | IC90 [1] | inhibition [2]
23 | CCOC(=O)CSc1ncnc2c1cnn2-c1ccccc1 | 4.02 µM | 9.98 µM | 
24 | CC1CCCN(C(=O)c2ccc(CNc3c(N4CCCCC4)c(=O)c3=O)cc2)C1 (stereo not given) | 5.73 µM |  | 
25 | O=C(c1ccc(CNc2c(N3CCCC3)c(=O)c2=O)cc1)N1CCC(c2ccccc2)CC1 | 76.1 µM |  | 
26 | CCOC(=O)N1CCC(Nc2c(Nc3cccc(CC)c3)c(=O)c2=O)CC1 | 36.5 µM |  | 
27 | O=C(c1ccc(CNc2c(N3CCOCC3)c(=O)c2=O)cc1)N1CC=C(c2ccccc2)CC1 | 1.71 µM | 8.36 µM | 
28 | COC(=O)C(Cc1ccccc1)NC(=O)CSc1nc2ccccc2c(=O)[nH]1 (stereo not given) |  |  | 2.32% (inactive)
29 | CC1CC(C)CN(C(=O)C2CCC(CNc3c(N4CCCCC4)c(=O)c3=O)CC2)C1 (stereo not given) | 7.79 µM and 24.7 µM |  | 
30 | Cc1cccc(N2CCN(C(=O)c3ccc(CNc4c(N5CCC(C)CC5)c(=O)c4=O)cc3)CC2)c1C | 42.1 µM | 56.9 µM | 
31 | CC1CC(C)CN(C(=O)c2ccc(CNc3c(N4CCCC4)c(=O)c3=O)cc2)C1 (stereo not given) | 12.8 µM |  | 
32 | O=C(CSc1nc2c(c(=O)[nH]1)CN(Cc1ccccc1)CC2)NC1CCCCC1 |  |  | -4.57% (inactive)
33 | Cc1cccc(N2CCN(C(=O)c3ccc(CNc4c(N5CCC(C)CC5)c(=O)c4=O)cc3)CC2C)c1 (stereo not given) | 27.7 µM | 46.3 µM | 
34 | O=C(C1CCC(CNc2c(N3CCCCC3)c(=O)c2=O)CC1)N1CCCCC1 (stereo not given) | 27.5 µM |  | 
35 | CCOc1ccc(NC(=O)c2ccc(CNc3c(N4CCCC4)c(=O)c3=O)cc2)cc1 |  |  | -0.36% (inactive)
36 | O=C(NCCc1ccc(Cl)cc1)c1ccc(CNc2c(N3CCOCC3)c(=O)c2=O)cc1 | 5.66 µM and 14.4 µM |  | 
37 | O=C(NCc1ccc(C(=O)N2CCC(c3ccccc3)CC2)cc1)Nc1ccc(Cl)cc1 | 72.2 µM | 92.5 µM | 
38 | CCOC(=O)CSc1ncnc2c1cnn2-c1ccc(C)cc1C | 2.64 µM | 4.58 µM | 
39 | COC(=O)CSc1ncnc2c1cnn2-c1ccc(C)cc1C | 2.78 µM | 3.71 µM | 
40 | O=C(NCc1ccc(C(=O)N2CCN(c3ccccc3)CC2)cc1)NC1CCCCC1 |  |  | 2.51% (inactive)
41 | CC(C)CCNC(=O)CSc1nc2c(c(=O)[nH]1)CCCCC2 | 99.2 µM |  | 
42 | O=C(CSc1nc2c(c(=O)[nH]1)CCC2)NC1CCCCC1 | 2.24 µM | 3.23 µM | 
43 | O=C(c1ccc(CNc2c(N3CCCC3)c(=O)c2=O)cc1)N1CCN(c2ccccc2)CC1 | 70.2 µM |  | 
